Assay results: US7632531B2, “Alkyldienamides exhibiting taste and sensory effect in flavor compositions” (International Flavors & Fragnances Inc., priority 2003, dated 2009)

Columns and labels:
Assay type in all cases: in vivo
[1] = Flavor / organoleptic characteristics of the alkyldienamides; conditions: for Taste and flavor characteristics: organoleptic properties; for Primary characteristic / Secondary characteristic: flavor characteristics
[2] = Alcoholic peach beverage tasting versus control beverage; conditions: 20 PPM compound plus 60 PPM peach flavor in 30° Proof alcoholic base
Description: Flavored beverages were prepared using the following 30° Proof alcoholic base:
The peach flavor applied to the beverages consisted of a blend of Gamma Decalactone, Benzaldehyde, Cis-3-hexenol, Butyric acid, 2-Methyl butyric acid, Iso butyl acetate, Linalool, and para-Mentha-8-thiol-3-one. The control beverage contained 60 PPM of the above flavor blend. […] Another beverage was prepared containing 60 PPM of the same flavor and 20 PPM of N-(3,4-methylenedioxy)benzyl E2,Z6-nonadienamide.

[3] = Non-alcoholic lemon lime beverage tasting versus control beverage; conditions: 0.5 PPM compound plus 35 PPM lemon oil/lime oil flavor; versus control beverage with flavor only
Description: A non-alcoholic beverage formulation was prepared according to the following formulation: […]
The flavor applied to the beverages consisted of a blend of single fold lemon oil and distilled lime oil. The control beverage contained 35 PPM of this flavor. […] Another beverage was prepared containing 35 PPM of the same flavor and 0.5 PPM of N-Ethyl E2,Z6-nonadienamide.

[4] = Toothpaste tasting in normal tooth brushing versus control paste; conditions: 200 ppm compound added to mint control paste
Description: The following separate groups of ingredients were prepared:
2.0 parts by weight of sodium n-Lauroyl sarcosinate (foaming agent)
1.0 parts by weight of the flavor material which is a blend of peppermint oil, spearmint oil, anethole, and menthol.
• (1) The ingredients in Group “A” were stirred and heated in a steam jacketed kettle to 160° F. • (2) Stirring was continued for an additional 3 to 5 minutes to form a homogeneous gel. • (3) The powders of Group “B” were added to the gel, while mixing until a homogeneous paste is formed. • (4) With stirring, the flavor of Group “D” was added, followed by addition immediately thereafter of the foaming agent of Group “C”. • (5) The resultant slurry was then blended for one hour.
The completed paste was then transferred to a three-roller mill, homogenized and finally tubed. […] To this control paste 200 ppm of N-Isobutyl E2,Z6-dodecadienamide is added.

[5] = Hard candy (cinnamon bark oil) tasting versus control candy; conditions: 100 PPM compound in cinnamon bark oil candy
Description: The above ingredients were added to a stainless steel pot. With constant mixing the ingredients were brought to 295° F. The pot was removed from the heat and 0.5 grams of cinnamon bark oil was blended in. This liquid candy was then deposited into molds where it was left to cool. This recipe yielded 200 grams of finished candy. […] Another candy sample was prepared using the above recipe with the addition of 100 PPM of N-Methyl E2,Z6-nonadienamide.

Row | SMILES | Taste and flavor characteristics [1] | Primary characteristic [1] | Secondary characteristic [1] | also measured
1 | CC/C=C\CC/C=C/C(=O)NCC(C)O (stereo not drawn) [N-(2-hydroxypropyl) E2,Z6-nonadienamide] | Cloying, fatty, cod liver oil, fishy. |  |  | 
2 | CCCCC/C=C\CC/C=C/C(=O)NCC(C)CC (stereo not drawn) [N-(2-methylbutyl) E2,Z6-dodecadienamide] | Slightly fruity, tingle, salty. | Fruity | Salt like | 
3 | CC/C=C\CC/C=C/C(=O)NCC(C)CC (stereo not drawn) [N-(2-methylbutyl) E2,Z6-nonadienamide] | Metallic, bitter, tingle. | Bitter | Tingle | 
4 | CC/C=C\CC/C=C/C(=O)NCc1ccc2c(c1)OCO2 [N-(3,4-methylenedioxy) benzyl E2,Z6-nonadienamide] | Numbing and tingle. | Numbing | Tingle | Taste effect in alcoholic beverage [2]: an enhanced perception of alcohol, increased flavor impact, and a tingle effect on the tongue
5 | CC/C=C\CC/C=C/C(=O)NC1CC1 [N-cyclopropyl E2,Z6-nonadienamide] |  | Umami | Enhancement | 
6 | CCCCC/C=C\CC/C=C/C(=O)NCC [N-ethyl E2,Z6-dodecadienamide] |  | MSG like | Burning | 
7 | CC/C=C\CC/C=C/C(=O)NCC [N-ethyl E2,Z6-nonadienamide] | Umami character. | Umami | Enhancement | Taste effect in non-alcoholic beverage [3]: enhanced flavor impact, increased tartness, and an increased perception of freshness
8 | CCCCC/C=C\CC/C=C/C(=O)NCC(C)C [N-isobutyl E2,Z6-dodecadienamide] |  | Numbing | Tingle | Additional sensation of toothpaste (tingle, numbing) [4]: tingle on the tongue and a slight numbing on the lips; Flavor / cooling of toothpaste [4]: moderate cooling without the bitterness of the control sample
9 | CC/C=C\CC/C=C/C(=O)NCC(C)C [N-isobutyl E2,Z6-nonadienamide] |  |  | MSG like | 
10 | CCCCC/C=C\CC/C=C/C(=O)NC(C)C [N-isopropyl E2,Z6-dodecadienamide] | Oily flavor, slight tingle. |  | Tingle | 
11 | CC/C=C\CC/C=C/C(=O)NC(C)C [N-isopropyl E2,Z6-nonadienamide] | Oily, cucumber, some tingle, bitter. | Cucumber taste | Tingle | 
12 | CC/C=C\CC/C=C/C(=O)NC [N-methyl E2,Z6-nonadienamide] | Warming, tingle. | Tingle | Numbing | Taste effect in hard candy [5]: a greener flavor with less warmth, a slight numbing and a moderate level of tingle
